Values joined by “and” are separate entries in the source; they are usually repeats but may differ in a detail not shown here. Equal values may be shown once.

In one series the test system is ErbB1 (EGFR). The note with it: read-out: KD of binding or IC50 (nM), ErbB1; cited from earlier work.
For the next series, the system named is ErbB2. The note with it: cited from earlier work.
For the next series, the system named is ErbB3. The following applies: cited from earlier work.
The next series relates to ErbB1. The following applies: cited from earlier work.
Series [1] deals with SARS-CoV-2 (USA-WA1/2020). Description: microbe, parasite or virus in culture. The class given is cell-based. The following applies: Severe acute respiratory syndrome coronavirus 2, Calu-3, read-out: EC50, SARS-CoV-2 infection.
Series [2] in a line: in vitro. The following applies: human.
The test system of series [3] is ErbB4. The following applies: cited from earlier work.
In a further series the test system is SRMS. The following applies: cited from earlier work.
The subject of another series is JAK. The following applies: cited from earlier work.
A further series has as its system BLK. The following applies: cited from earlier work.
Another series has as its system VEEV (TC-83). Description: microbe, parasite or virus in culture. The class given is cell-based. The note with it: Venezuelan equine encephalitis virus, U-87 MG, read-out: EC50, VEEV (TC-83) infection.
For a further series, the system named is BTK. The following applies: cited from earlier work.
The subject of the next series is MAP2K5. The note with it: cited from earlier work.
Series [4] can be described thus: in vitro. The note with it: human. The source holds these as a separate data set.
The target of series [5] is T1, ErbB4 (Homo sapiens, UniProt Q15303). Description: biochemical. The following applies: read-out: ErbB4 activity (%).
T1 sequence (Q15303 26-1308): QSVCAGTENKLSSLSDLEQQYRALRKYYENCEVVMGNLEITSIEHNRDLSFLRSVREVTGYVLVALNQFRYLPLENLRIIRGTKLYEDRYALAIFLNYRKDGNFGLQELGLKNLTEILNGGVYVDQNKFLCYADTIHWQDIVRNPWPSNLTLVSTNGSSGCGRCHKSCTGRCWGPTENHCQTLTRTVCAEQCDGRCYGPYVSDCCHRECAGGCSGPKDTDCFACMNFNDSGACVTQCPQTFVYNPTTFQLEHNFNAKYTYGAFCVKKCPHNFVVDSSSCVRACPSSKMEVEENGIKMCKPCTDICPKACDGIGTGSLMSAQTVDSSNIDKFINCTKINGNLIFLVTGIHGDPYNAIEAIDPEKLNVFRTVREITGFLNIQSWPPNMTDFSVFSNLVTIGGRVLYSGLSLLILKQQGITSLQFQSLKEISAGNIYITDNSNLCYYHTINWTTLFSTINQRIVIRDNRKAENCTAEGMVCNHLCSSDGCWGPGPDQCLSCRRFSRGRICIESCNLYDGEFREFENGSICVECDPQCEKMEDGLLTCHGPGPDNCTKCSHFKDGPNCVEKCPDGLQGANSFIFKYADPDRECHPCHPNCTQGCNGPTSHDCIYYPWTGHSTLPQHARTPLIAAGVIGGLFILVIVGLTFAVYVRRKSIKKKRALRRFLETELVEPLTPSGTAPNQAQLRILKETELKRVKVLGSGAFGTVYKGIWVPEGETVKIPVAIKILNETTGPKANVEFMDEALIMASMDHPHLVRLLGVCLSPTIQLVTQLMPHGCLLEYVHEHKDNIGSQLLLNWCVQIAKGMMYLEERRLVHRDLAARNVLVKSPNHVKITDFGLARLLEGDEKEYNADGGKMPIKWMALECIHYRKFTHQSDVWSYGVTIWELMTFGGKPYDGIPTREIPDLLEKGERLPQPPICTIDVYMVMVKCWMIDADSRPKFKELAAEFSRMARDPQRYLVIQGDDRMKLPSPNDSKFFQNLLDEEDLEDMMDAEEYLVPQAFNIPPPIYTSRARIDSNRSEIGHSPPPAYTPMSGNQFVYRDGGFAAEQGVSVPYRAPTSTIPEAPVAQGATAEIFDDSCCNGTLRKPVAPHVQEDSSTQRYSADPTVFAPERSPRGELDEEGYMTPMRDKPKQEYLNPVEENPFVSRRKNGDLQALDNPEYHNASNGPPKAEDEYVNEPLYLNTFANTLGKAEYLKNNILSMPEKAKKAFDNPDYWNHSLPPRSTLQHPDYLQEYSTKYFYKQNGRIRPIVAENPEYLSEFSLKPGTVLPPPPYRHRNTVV
Series [6] deals with T1, ErbB4. The note with it: read-out: KD of binding or IC50 (nM), ErbB4; cited from earlier work.

Turning to `C=CC(=O)N1CCC[C@@H](n2nc(-c3ccc(Oc4ccccc4)cc3)c3c(N)ncnc32)C1` [Ibrutinib], the IC50 (commonly the concentration that inhibits the measured activity by half) in the series with ErbB1 (EGFR) is 1.8 nM. For the same compound, the “% of control, ErbB2” value with ErbB2 is 12.1 nM 0%. Moreover, the “Other targets: ErbB3 (% of control)” value in the series with ErbB3 is recorded as “JAK (0%), BTK (0%), SRMS (0%), BLK (0.1%), ErbB3 (0.1%), MAP2K5 (0.2%)”. Moreover, the “% of control, ErbB1” value with ErbB1 is recorded as 1.8 nM 1.8%. The EC50 (as a rule, the concentration needed to bring the measured effect to its halfway point) in [1] was 800 nM; in the series on VEEV (TC-83) it was 500 nM. Moreover, the CC50 in the series “in vitro [2]” and in the series “in vitro [4]” was > 20000 nM each time. In the series on ErbB4 [3], the “% of control, ErbB4” value was 1.0 nM 0%. The “Other targets: SRMS (% of control)” value with SRMS was “JAK (0%), BTK (0%), SRMS (0%), BLK (0.1%), ErbB3 (0.1%), MAP2K5 (0.2%)”. The “Other targets: JAK (% of control)” value with JAK is reported as “JAK (0%), BTK (0%), SRMS (0%), BLK (0.1%), ErbB3 (0.1%), MAP2K5 (0.2%)”. The “Other targets: BLK (% of control)” value in the series with BLK is listed as “JAK (0%), BTK (0%), SRMS (0%), BLK (0.1%), ErbB3 (0.1%), MAP2K5 (0.2%)”. The “Other targets: BTK (% of control)” value with BTK was “JAK (0%), BTK (0%), SRMS (0%), BLK (0.1%), ErbB3 (0.1%), MAP2K5 (0.2%)”. In the series with MAP2K5, the “Other targets: MAP2K5 (% of control)” value was “JAK (0%), BTK (0%), SRMS (0%), BLK (0.1%), ErbB3 (0.1%), MAP2K5 (0.2%)”.

Consider `CNC(=O)CN1CCC(Oc2cc3c(Nc4cccc(Cl)c4F)ncnc3cc2OC)CC1` [Sapitinib], for which the IC50 in the series on ErbB1 (EGFR) is 12 nM. Moreover, at ErbB4 [5], the activity at 0.00305 µM amounted to 37.7%, the activity at 0.0274 µM is 10.2%, the activity at 0.08 µM worked out at 5.52% and the activity at 0.25 µM worked out at 2.84%. Moreover, on ErbB4 [5], the activity at 0.74 µM came out at 1.25%, the activity at 2.22 µM worked out at 2.36%, the activity at 6.67 µM came out at 1.4% and the activity at 20 µM was 1.27%. Moreover, at ErbB4 [5], the activity at 60 µM was found to be 0%; the activity at […] is 18.7% and 54.8%. Further, in series [1], the EC50 is 1800 nM. Further, the CC50 in “in vitro [2]” was > 20000 nM. In addition, the EC50 in the series on VEEV (TC-83) is 2600 nM. Further, the CC50 in “in vitro [4]” was > 20000 nM. Further, the viability (commonly a per cent measure of how many cells are alive, often set against a control) in the series “in vitro [4]” (Calu-3 viability (%)) was 82.2%. The IC50 at ErbB4 [6] was 1.4 nM.

The values above are taken from paper PMC10541190 (The Journal of Clinical Investigation, 2023).
